In PMC10449633 (Nature Chemical Biology, 2023):
Where “and” joins values, the source holds several entries; their conditions need not be identical. Identical values can stand only once. Like-named read-outs stand apart in the source and are kept apart here. Square brackets hold non-standard residues; d marks the D form. Peptide text beside a SMILES is read from it. NMeTrp(1-(4-Br-benzyl)) = CN[C@@H](Cc1cn(Cc2ccc(Br)cc2)c2ccccc12)C(=O)O; Butanoyl(2R-oxy,4-CN) = N#CCC[C@@H](O)C(=O)O; Abu(4,4,4-F3) = N[C@@H](CC(F)(F)F)C(=O)O; NMeL = CN[C@@H](CC(C)C)C(=O)O; NMeA = CN[C@@H](C)C(=O)O

Columns and labels:
Sec61 [1] = molecular target: T1, Sec61 (Homo sapiens, UniProt P61619); assay: signal peptide-GLuc (SP-GLuc) reporter panel, 89 constructs; assay type: cell-based; settings: read-out: IC50
T1 construct: endogenous in cells
Description: The heat map depicts IC50 values calculated from each SP-GLuc dose–response curve. d, Arthritis was induced in BALB/c mice with antibodies specific for type II collagen (mAb) on day 0 and endotoxin on day 3. On day 4, when the disease was present in all animals, mice were randomized and treated for 2 weeks with thrice weekly (QODx3) or weekly (QW) intravenous administration of vehicle or KZR-8445 or intraperitoneal administration of dexamethasone. Clinical scores (0–4 per paw; n = 10 per group) and body weights were followed until day 14. Data are presented as mean values ± s.d. mAb, monoclonal antibody. Source data
To investigate the effects of KZR-8445 on secretory and membrane protein biogenesis and to establish Sec61α as the relevant target, we quantified the secretion of a doxycycline-inducible Gaussia luciferase (GLuc) reporter fused to the C-terminus of two full-length pro-inflammatory cytokines, interleukin-2 (IL-2) (which contains a cleavable signal peptide) and tumor necrosis factor-alpha (TNFα) (which contains an N-terminal transmembrane anchor). […] KZR-8445 is structurally related to CT8, which discriminates among Sec61 clients based largely on their N-terminal signal peptide. […] We also directly compared KZR-8445 to mycolactone A/B, a structurally distinct and relatively client-nonselective Sec61 inhibitor[8],[25], for their ability to discriminate between vascular cell adhesion molecule (VCAM) and preprolactin (pPL) signal peptides.
Target sequence in this assay (P61619 whole entry): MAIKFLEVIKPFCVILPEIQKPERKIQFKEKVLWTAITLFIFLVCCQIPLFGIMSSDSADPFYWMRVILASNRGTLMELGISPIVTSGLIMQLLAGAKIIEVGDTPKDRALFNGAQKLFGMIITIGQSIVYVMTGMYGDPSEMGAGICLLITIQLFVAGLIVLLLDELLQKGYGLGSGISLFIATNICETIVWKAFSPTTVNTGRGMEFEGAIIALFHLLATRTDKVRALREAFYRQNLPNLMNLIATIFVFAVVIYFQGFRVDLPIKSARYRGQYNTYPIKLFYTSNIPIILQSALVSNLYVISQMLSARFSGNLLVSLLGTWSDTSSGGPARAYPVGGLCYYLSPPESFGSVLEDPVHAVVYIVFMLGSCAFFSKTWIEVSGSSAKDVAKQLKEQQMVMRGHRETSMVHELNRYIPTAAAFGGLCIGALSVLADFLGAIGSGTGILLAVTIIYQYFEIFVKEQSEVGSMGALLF
Target sequence in this assay (P60059 whole entry, further chain): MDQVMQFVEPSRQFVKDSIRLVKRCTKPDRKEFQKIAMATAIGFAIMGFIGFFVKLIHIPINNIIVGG
Target sequence in this assay (P60468 whole entry, further chain): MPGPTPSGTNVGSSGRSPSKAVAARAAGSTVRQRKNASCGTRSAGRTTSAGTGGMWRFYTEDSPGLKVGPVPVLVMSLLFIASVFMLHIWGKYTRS

Sec61 [2] = molecular target: T1, Sec61; assay: cell-based
Target sequence in this assay (P60059 whole entry): as the sequence (P60059 whole entry, further chain) above
Target sequence in this assay (P61619 whole entry): as the sequence (P61619 whole entry) above
Target sequence in this assay (P60468 whole entry, further chain): as the sequence (P60468 whole entry, further chain) above

CC(C)C[C@@H]1NC(=O)[C@H](Cc2cn(Cc3ccc(Br)cc3)c3ccccc23)N(C)C(=O)[C@H](CC(F)(F)F)NC(=O)[C@H](CC(C)C)N(C)C(=O)[C@H](CC(F)(F)F)NC(=O)[C@@H](CCC#N)OC(=O)[C@H](C)N(C)C1=O [KZR-0508445] (cyclo(L[NMeA][Butanoyl(2R-oxy,4-CN)][Abu(4,4,4-F3)][NMeL][Abu(4,4,4-F3)][NMeTrp(1-(4-Br-benzyl))]))
IC50 (Sec61 [1]; ADPGK signal peptide-GLuc reporter): 540 nM
IC50 (Sec61 [1]; ANGPTL3 signal peptide-GLuc reporter): 49.4 nM
IC50 (Sec61 [1]; APOC1 signal peptide-GLuc reporter): 135 nM
IC50 (Sec61 [1]; APP signal peptide-GLuc reporter): 449 nM
IC50 (Sec61 [1]; AXL signal peptide-GLuc reporter): 13.8 nM
IC50 (Sec61 [1]; BCAN signal peptide-GLuc reporter): 142 nM
IC50 (Sec61 [1]; C1S signal peptide-GLuc reporter): 383 nM
IC50 (Sec61 [1]; CALCA signal peptide-GLuc reporter): 721 nM
IC50 (Sec61 [1]; CALCB signal peptide-GLuc reporter): 972 nM
IC50 (Sec61 [1]; CD40 signal peptide-GLuc reporter): 11300 nM
IC50 (Sec61 [1]; CD47 signal peptide-GLuc reporter): 373 nM
IC50 (Sec61 [1]; CD96 signal peptide-GLuc reporter): 29.2 nM
IC50 (Sec61 [1]; CD274 signal peptide-GLuc reporter): 93.3 nM
IC50 (Sec61 [1]; CDH1 signal peptide-GLuc reporter): 811 nM
IC50 (Sec61 [1]; CDH2 signal peptide-GLuc reporter): 15.5 nM
IC50 (Sec61 [1]; CDH5 signal peptide-GLuc reporter): 76 nM
IC50 (Sec61 [1]; CNPY2 signal peptide-GLuc reporter): 394 nM
IC50 (Sec61 [1]; CPD signal peptide-GLuc reporter): 694 nM
IC50 (Sec61 [1]; CR1L signal peptide-GLuc reporter): 61.3 nM
IC50 (Sec61 [1]; CSF2RB signal peptide-GLuc reporter): 652 nM
IC50 (Sec61 [1]; CTLA4 signal peptide-GLuc reporter): 343 nM
IC50 (Sec61 [1]; DDRGK1 signal peptide-GLuc reporter): 1850 nM
IC50 (Sec61 [1]; DMKN signal peptide-GLuc reporter): 2630 nM
IC50 (Sec61 [1]; DNAJB11 signal peptide-GLuc reporter): 4360 nM
IC50 (Sec61 [1]; ERBB2 signal peptide-GLuc reporter): 536 nM
IC50 (Sec61 [1]; F3 signal peptide-GLuc reporter): 162 nM
IC50 (Sec61 [1]; FGF23 signal peptide-GLuc reporter): 28.2 nM
IC50 (Sec61 [1]; FLT3 signal peptide-GLuc reporter): 360 nM
IC50 (Sec61 [1]; FNDC10 signal peptide-GLuc reporter): 726 nM
IC50 (Sec61 [1]; FURIN signal peptide-GLuc reporter): 4740 nM
IC50 (Sec61 [1]; GAS6 signal peptide-GLuc reporter): 118 nM
IC50 (Sec61 [1]; HJV signal peptide-GLuc reporter): 427 nM
IC50 (Sec61 [1]; HLA-G signal peptide-GLuc reporter): 39.2 nM
IC50 (Sec61 [1]; HSPA13 signal peptide-GLuc reporter): 1110 nM
IC50 (Sec61 [1]; IGF1R signal peptide-GLuc reporter): 814 nM
IC50 (Sec61 [1]; IL1RAP signal peptide-GLuc reporter): 101 nM
IC50 (Sec61 [1]; IL4R signal peptide-GLuc reporter): 32 nM
IC50 (Sec61 [1]; IL4 signal peptide-GLuc reporter): 359 nM
IC50 (Sec61 [1]; IL5RA signal peptide-GLuc reporter): 1320 nM
IC50 (Sec61 [1]; IL5 signal peptide-GLuc reporter): 1300 nM
IC50 (Sec61 [1]; IL6R signal peptide-GLuc reporter): 92.3 nM
IC50 (Sec61 [1]; IL6ST signal peptide-GLuc reporter): 56.5 nM
IC50 (Sec61 [1]; IL6 signal peptide-GLuc reporter): 155 nM
IC50 (Sec61 [1]; IL7 signal peptide-GLuc reporter): 5.23 nM
IC50 (Sec61 [1]; IL10 signal peptide-GLuc reporter): 434 nM
IC50 (Sec61 [1]; IL11 signal peptide-GLuc reporter): 183 nM
IC50 (Sec61 [1]; IL12B signal peptide-GLuc reporter): 109 nM
IC50 (Sec61 [1]; IL12RB1 signal peptide-GLuc reporter): 64.4 nM
IC50 (Sec61 [1]; IL13 signal peptide-GLuc reporter): 59.1 nM
IC50 (Sec61 [1]; IL15RA signal peptide-GLuc reporter): 294 nM
IC50 (Sec61 [1]; IL15 signal peptide-GLuc reporter): 116 nM
IC50 (Sec61 [1]; IL17A signal peptide-GLuc reporter): 318 nM
IC50 (Sec61 [1]; IL17F signal peptide-GLuc reporter): 228 nM
IC50 (Sec61 [1]; IL17RA signal peptide-GLuc reporter): 408 nM
IC50 (Sec61 [1]; IL23A signal peptide-GLuc reporter): 425 nM
IC50 (Sec61 [1]; IL23R signal peptide-GLuc reporter): 366 nM
IC50 (Sec61 [1]; ITGA3 signal peptide-GLuc reporter): 18300 nM
IC50 (Sec61 [1]; ITGB3 signal peptide-GLuc reporter): 106 nM
IC50 (Sec61 [1]; ITGB5 signal peptide-GLuc reporter): 89.1 nM
IC50 (Sec61 [1]; ITGB7 signal peptide-GLuc reporter): 228 nM
IC50 (Sec61 [1]; JTB signal peptide-GLuc reporter): 25.5 nM
IC50 (Sec61 [1]; KRTDAP signal peptide-GLuc reporter): 570 nM
IC50 (Sec61 [1]; LCN6 signal peptide-GLuc reporter): 101 nM
IC50 (Sec61 [1]; LDLR signal peptide-GLuc reporter): 800 nM
IC50 (Sec61 [1]; LILRB2 signal peptide-GLuc reporter): 1730 nM
IC50 (Sec61 [1]; LRP8 signal peptide-GLuc reporter): 681 nM
IC50 (Sec61 [1]; MASP2 signal peptide-GLuc reporter): 127 nM
IC50 (Sec61 [1]; METTL7A signal peptide-GLuc reporter): 6900 nM
IC50 (Sec61 [1]; NGF signal peptide-GLuc reporter): 347 nM
IC50 (Sec61 [1]; P3H1 signal peptide-GLuc reporter): 72.7 nM
IC50 (Sec61 [1]; PCDHA4 signal peptide-GLuc reporter): 489 nM
IC50 (Sec61 [1]; PCSK9 signal peptide-GLuc reporter): 1280 nM
IC50 (Sec61 [1]; PDCD1 signal peptide-GLuc reporter): 37 nM
IC50 (Sec61 [1]; PRKCSH signal peptide-GLuc reporter): 186 nM
IC50 (Sec61 [1]; PSG8 signal peptide-GLuc reporter): 292 nM
IC50 (Sec61 [1]; SIRPA signal peptide-GLuc reporter): 2030 nM
IC50 (Sec61 [1]; SSR2 signal peptide-GLuc reporter): 137 nM
IC50 (Sec61 [1]; STAB1 signal peptide-GLuc reporter): 670 nM
IC50 (Sec61 [1]; SUCO signal peptide-GLuc reporter): 1450 nM
IC50 (Sec61 [1]; TGFB1 signal peptide-GLuc reporter): 2210 nM
IC50 (Sec61 [1]; TGFB2 signal peptide-GLuc reporter): 187 nM
IC50 (Sec61 [1]; TGFBR1 signal peptide-GLuc reporter): 134 nM
IC50 (Sec61 [1]; TIGIT signal peptide-GLuc reporter): 590 nM
IC50 (Sec61 [1]; TMED10 signal peptide-GLuc reporter): 462 nM
IC50 (Sec61 [1]; UCN signal peptide-GLuc reporter): 5900 nM
GLuc reporter raw signal (replicates) (Sec61 [2]; HER3, Concentration 0.32): 2935000 and 2941500 and 3013900
GLuc reporter raw signal (replicates) (Sec61 [2]; HER3, Concentration 8): 2659500 and 2842600
GLuc reporter raw signal (replicates) (Sec61 [2]; HER3, Concentration 40): 1960600 and 2026300 and 1990500
GLuc reporter raw signal (replicates) (Sec61 [2]; HER3, Concentration 200): 739710 and 740510 and 713180
GLuc reporter raw signal (replicates) (Sec61 [2]; HER3, Concentration 1000): 117630 and 116630 and 119290
GLuc reporter raw signal (replicates) (Sec61 [2]; HER3, Concentration 5000): 40623 and 42704 and 41387
GLuc reporter raw signal (replicates) (Sec61 [2]; HER3, Concentration 25000): 40492 and 42302 and 41156
GLuc reporter raw signal (replicates) (Sec61 [2]; IL2, Concentration 0.32): 2694100 and 2451600 and 2682900
GLuc reporter raw signal (replicates) (Sec61 [2]; IL2, Concentration 8): 2155800 and 2012200 and 2217000
GLuc reporter raw signal (replicates) (Sec61 [2]; IL2, Concentration 40): 1384000 and 1357800 and 1362400
GLuc reporter raw signal (replicates) (Sec61 [2]; IL2, Concentration 200): 418080 and 431560 and 427460
GLuc reporter raw signal (replicates) (Sec61 [2]; IL2, Concentration 1000): 69620 and 75099 and 80209
GLuc reporter raw signal (replicates) (Sec61 [2]; IL2, Concentration 5000): 24453 and 26590 and 27282
GLuc reporter raw signal (replicates) (Sec61 [2]; IL2, Concentration 25000): 27001 and 26299 and 26941
GLuc reporter raw signal (replicates) (Sec61 [2]; PD1, Concentration 0.32): 1085300 and 1145000 and 1139600
GLuc reporter raw signal (replicates) (Sec61 [2]; PD1, Concentration 8): 871620 and 904180 and 884200
GLuc reporter raw signal (replicates) (Sec61 [2]; PD1, Concentration 40): 505580 and 506170 and 515230
GLuc reporter raw signal (replicates) (Sec61 [2]; PD1, Concentration 200): 149930 and 159870 and 181940
GLuc reporter raw signal (replicates) (Sec61 [2]; PD1, Concentration 1000): 25647 and 33346 and 33065
GLuc reporter raw signal (replicates) (Sec61 [2]; PD1, Concentration 5000): 10483 and 12045 and 12165
GLuc reporter raw signal (replicates) (Sec61 [2]; PD1, Concentration 25000): 10613 and 11144 and 10202
GLuc reporter raw signal (replicates) (Sec61 [2]; Prolactin, Concentration 0.32): 9123600 and 9441100 and 9520300
GLuc reporter raw signal (replicates) (Sec61 [2]; Prolactin, Concentration 40): 8673700 and 8850000 and 8412700
GLuc reporter raw signal (replicates) (Sec61 [2]; Prolactin, Concentration 200): 7415400 and 7981400 and 8354800
GLuc reporter raw signal (replicates) (Sec61 [2]; Prolactin, Concentration 1000): 4269000 and 4043400 and 4397300
GLuc reporter raw signal (replicates) (Sec61 [2]; Prolactin, Concentration 5000): 1501600 and 1605300 and 3990200
GLuc reporter raw signal (replicates) (Sec61 [2]; Prolactin, Concentration 25000): 1205700 and 1279300 and 1375600
GLuc reporter raw signal (replicates) (Sec61 [2]; TNFa, Concentration 0.32): 190530 and 188640 and 185180
GLuc reporter raw signal (replicates) (Sec61 [2]; TNFa, Concentration 8): 168690 and 159800
GLuc reporter raw signal (replicates) (Sec61 [2]; TNFa, Concentration 40): 128960 and 129480 and 142690
GLuc reporter raw signal (replicates) (Sec61 [2]; TNFa, Concentration 200): 58379 and 60837 and 65010
GLuc reporter raw signal (replicates) (Sec61 [2]; TNFa, Concentration 1000): 21193 and 19058 and 21945
GLuc reporter raw signal (replicates) (Sec61 [2]; TNFa, Concentration 5000): 10351 and 10241 and 10171
GLuc reporter raw signal (replicates) (Sec61 [2]; TNFa, Concentration 25000): 9540 and 9711 and 9400
